Test results published in patent US20230174649A1, “PHARMACEUTICAL COMPOSITIONS CONTAINING ANTI-CD47 ANTIBODIES” (I-MAB BIOPHARMA US LIMITED, priority 2020, published 2023).
Several values for one entry are separate records, joined by “and”; a condition that tells them apart may be missing. Equal entries are not always repeated.

Key:
Type in all cases: cell-based, Human
Toledo Cells = experiment: FACS-based phagocytosis assay, macrophages cocultured with Toledo cells
Method: FACS-based phagocytosis assays were performed to evaluate the phagocytic abilities of macrophages.
Toledo Cells (a tumor cell line, as a target) were labelled with CellTrace™ Far Red and plated into 96-well plate at a density of 0.15×10^6 cells/well for 12 hours. The Macrophages were prepared as discussed above and then labelled with CellTrace Violet. Next, the macrophages were added into the plate as an effector at an effector:target (Toledo) ratio of 1:3, giving a final density of macrophages at 0.05×10^6 cells/well. Macrophages and tumor cells were cocultured for 2-6 h at 37° C. in the presence of the indicated treatments (small molecule therapeutic agents, CD47 antibody, CD20 antibody or combinations). The incubation time depending on the phagocytosis rate, expecting phagocytosis of 5-20% cells.
Then, cells were acquired and data were analyzed.

CD47 = experiment: FACS analysis of expression level of CD47 on tumor cell surface; conditions: Toledo cells; for Mean Fluorescence Intensity (MFI) CD47: 12 hours
Method: (§1) For FACS analysis, on the day of analysis (day 1), Toledo cells were seeded into 96 well plate and cultured at a density of 0.2×10^6 cells/well. Then the cells were treated with the selected small molecule therapeutic agents for 12 hours.
(§2) On day 2, cells were harvested, washed twice and then re-suspended in 100 uL FACS buffer subject to FACS analysis. For detection of the expression of calreticulin and CD47, cells were incubated with anti-calreticulin antibody and commercially available anti-CD47 antibody (BD Biosciences, Catalog number: 561249) in dark at 4° C. for 30 mins.
(§3) Then, the cells were subject to FACS analysis. Data was acquired and analyzed.

Calreticulin = experiment: FACS analysis of expression level of calreticulin on tumor cell surface; conditions: Toledo cells; for Mean Fluorescence Intensity (MFI) Calreticulin: 12 hours
Method: as §1, §2, §3

macrophages = experiment: Macrophage Viability Assay (CellTiter-Glo); conditions: for Macrophage viability (CellTiter-Glo Luminescent Cell Viability Assay): 16 hours, three replicate lines
Method: Then, the monocytes isolated by MACS were subsequently cultured in fresh complete medium supplemented with recombinant human granulocyte-macrophage colony-stimulating factor GM-CSF (50 ng/ml) and human recombinant IL-4 (35 ng/ml) to activate differentiated macrophages. After 6 days of culture (on day 7), cells were harvested, pooled together and counted for next use.
The cells from Example 2 were plated into a 96-well flat bottom plate at a density of 0.05×10^6 cells/well. After 2 hours of incubation, the macrophages were well attached to the plate. Then selected small molecule therapeutic agents were added to the well and cocultured for 16 hours. On day 8, macrophage viability was assessed by CellTiter-Glo® Luminescent Cell Viability Assay, according to the manufacture's instruction.

Nc1ncn([C@@H]2O[C@H](CO)[C@@H](O)[C@H]2O)c(=O)n1 [Azacitidine]
macrophage phagocytosis (untreated = 1.00) (Toledo Cells; Cpd 0.0016 uM, T4J = 0, R = 0): 1.09
macrophage phagocytosis (untreated = 1.00) (Toledo Cells; Cpd 0.0016 uM, T4J = 0, R = 0.01 ug/ml): 1.63
macrophage phagocytosis (untreated = 1.00) (Toledo Cells; Cpd 0.0016 uM, T4J = 0.1 ug/ml, R = 0): 2.66
macrophage phagocytosis (untreated = 1.00) (Toledo Cells; Cpd 0.0016 uM, T4J = 0.1 ug/ml, R = 0.01 ug/ml): 3.26
macrophage phagocytosis (untreated = 1.00) (Toledo Cells; Cpd 0.008 uM, T4J = 0, R = 0): 1.07
macrophage phagocytosis (untreated = 1.00) (Toledo Cells; Cpd 0.008 uM, T4J = 0, R = 0.01 ug/ml): 1.73
macrophage phagocytosis (untreated = 1.00) (Toledo Cells; Cpd 0.008 uM, T4J = 0.1 ug/ml, R = 0): 2.69
macrophage phagocytosis (untreated = 1.00) (Toledo Cells; Cpd 0.008 uM, T4J = 0.1 ug/ml, R = 0.01 ug/ml): 3.18
macrophage phagocytosis (untreated = 1.00) (Toledo Cells; Cpd 0.04 uM, T4J = 0, R = 0): 1.12
macrophage phagocytosis (untreated = 1.00) (Toledo Cells; Cpd 0.04 uM, T4J = 0, R = 0.01 ug/ml): 1.71
macrophage phagocytosis (untreated = 1.00) (Toledo Cells; Cpd 0.04 uM, T4J = 0.1 ug/ml, R = 0): 2.76
macrophage phagocytosis (untreated = 1.00) (Toledo Cells; Cpd 0.04 uM, T4J = 0.1 ug/ml, R = 0.01 ug/ml): 3.29
macrophage phagocytosis (untreated = 1.00) (Toledo Cells; Cpd 0.2 uM, T4J = 0, R = 0): 1.16
macrophage phagocytosis (untreated = 1.00) (Toledo Cells; Cpd 0.2 uM, T4J = 0, R = 0.01 ug/ml): 1.69
macrophage phagocytosis (untreated = 1.00) (Toledo Cells; Cpd 0.2 uM, T4J = 0.1 ug/ml, R = 0): 2.57
macrophage phagocytosis (untreated = 1.00) (Toledo Cells; Cpd 0.2 uM, T4J = 0.1 ug/ml, R = 0.01 ug/ml): 3.13
macrophage phagocytosis (untreated = 1.00) (Toledo Cells; Cpd 1 uM, T4J = 0, R = 0): 1.30
macrophage phagocytosis (untreated = 1.00) (Toledo Cells; Cpd 1 uM, T4J = 0, R = 0.01 ug/ml): 1.94
macrophage phagocytosis (untreated = 1.00) (Toledo Cells; Cpd 1 uM, T4J = 0.1 ug/ml, R = 0): 2.70
macrophage phagocytosis (untreated = 1.00) (Toledo Cells; Cpd 1 uM, T4J = 0.1 ug/ml, R = 0.01 ug/ml): 3.45
phagocytic ability of macrophages (Toledo Cells; agent itself or antibody combination): can also enhance the phagocytic ability of macrophages
phagocytic ability of macrophages (Toledo Cells; triple combination: T4J, Rituximab and the small molecule): enhances the phagocytic ability of macrophages much higher
Mean Fluorescence Intensity (MFI) CD47 (CD47; 0.008 uM): 8204
Mean Fluorescence Intensity (MFI) CD47 (CD47; 0.04 uM): 8062
Mean Fluorescence Intensity (MFI) CD47 (CD47; 0.2 uM): 8460
Mean Fluorescence Intensity (MFI) CD47 (CD47; 1 uM): 6638
Mean Fluorescence Intensity (MFI) CD47 (CD47; 5 uM): 5229
inhibition of CD47 expression (CD47; dose of 5 μM): ~50%
Mean Fluorescence Intensity (MFI) Calreticulin (Calreticulin; 0.008 uM): 65.8
Mean Fluorescence Intensity (MFI) Calreticulin (Calreticulin; 0.04 uM): 71.9
Mean Fluorescence Intensity (MFI) Calreticulin (Calreticulin; 0.2 uM): 88.4
Mean Fluorescence Intensity (MFI) Calreticulin (Calreticulin; 1 uM): 174
Mean Fluorescence Intensity (MFI) Calreticulin (Calreticulin; 5 uM): 491
increase of the expression level of calreticulin (Calreticulin; dose of 5 μM): about 20 folds
Macrophage viability (CellTiter-Glo Luminescent Cell Viability Assay) (macrophages; Cpd 0.002 uM): 4076 and 6020 and 5860
Macrophage viability (CellTiter-Glo Luminescent Cell Viability Assay) (macrophages; Cpd 0.008 uM): 4648 and 6100 and 6132
Macrophage viability (CellTiter-Glo Luminescent Cell Viability Assay) (macrophages; Cpd 0.04 uM): 4792 and 5892 and 6380
Macrophage viability (CellTiter-Glo Luminescent Cell Viability Assay) (macrophages; Cpd 0.2 uM): 5160 and 6136 and 6440
Macrophage viability (CellTiter-Glo Luminescent Cell Viability Assay) (macrophages; Cpd 1 uM): 5140 and 6108 and 6256
Macrophage viability (CellTiter-Glo Luminescent Cell Viability Assay) (macrophages; Cpd 5 uM): 4768 and 6132 and 6032
Macrophage viability (CellTiter-Glo Luminescent Cell Viability Assay) (macrophages; Cpd 25 uM): 4560 and 5520 and 5324
Macrophage viability (CellTiter-Glo Luminescent Cell Viability Assay) (macrophages; Cpd 50 uM): 4580 and 5420 and 4932
toxicity to macrophages (macrophages; dose as high as 50 μM): showed toxicity
toxicity to macrophages (macrophages; dose lower than 10 μM): little toxic
